Source: patent US20090028818A1, “Heterocyclic antiviral compounds” (Roche Palo Alto LLC, priority 2007, published 2009)
pIC50: −log10 of the molar value.

System: NLBal pseudotyped HIV-1
Assay: Antiviral assay, luciferase reporter in JC53BL cells
Type: cell-based
Details: Human immunodeficiency virus 1, JC53BL, 72 h, read-out: Antiviral Assay IC50
Protocol: The sensitivity of a recombinant HIV-1 virus pseudotyped with the envelope proteins of the CCR5-tropic virus NLBal to test compounds was determined in a Luciferase reporter assay using JC53BL cells. NLBal pseudotyped HIV-1 was generated by calcium phosphate transfection of 293T cells (ATCC) with equal amounts of DNA of an envelope-deleted HIV-1 plasmid and of a NLBal envelope expression plasmid. The media (DMEM, 10% fetal bovine serum, 1% Penicillin/streptomycin, 1% Glutamine, all Gibco) was changed 16 h post-transfection and virus containing supernatant was harvested 48 h post-transfection. To determine the sensitivity of NLBal pseudotyped HIV-1, 25.000 JC53BL cells (NIH AIDS Reagent Program) were infected with NLBal pseudotyped HIV-1 in presence of a drug gradient in white 96 well plates (Greiner Bio-one). The volume was adjusted to 200 μL using assay media (DMEM, 10% fetal bovine serum, 1% Penicillin/streptomycin, 1% Glutamine). After incubation at 37° C., 90% relative humidity, 5% CO2 for 3 days, 50 μL of Steady-Glo® Luciferase reagent (Promega) was added, incubated for 5 min at RT and luminescence was measured using a luminometer (Luminoskan, Thermo). The 50% and 90% inhibitory concentrations were calculated using Microsoft XL Fit 4 software.

Compound | pIC50
CCCCC1CN(C2CCOCC2)C(=O)N1C1CCN(C2(C)CCN(C(=O)c3c(C)cc(C#N)nc3C)CC2)CC1 (stereo not shown) [I-1, 5-{4-[5-Butyl-2-oxo-3-(tetrahydro-pyran-4-yl)-imidazolidin-1-yl]-4′-methyl-[1,4′]bipiperidinyl-1′-carbonyl}-4,6-dimethyl-pyridine-2-carbonitrile] | 7.70

System: collagen-induced arthritis
Assay: not given
Details: collagen-induced arthritis model; cited from earlier work

Compound | incidence and severity of arthritis
TAK-779 | reduce both the incidence and severity of arthritis

Target: T1, Human CCR5 receptor (Homo sapiens, UniProt P51681)
T1 construct: expressed in transfected cells
T1 sequence (P51681 whole entry): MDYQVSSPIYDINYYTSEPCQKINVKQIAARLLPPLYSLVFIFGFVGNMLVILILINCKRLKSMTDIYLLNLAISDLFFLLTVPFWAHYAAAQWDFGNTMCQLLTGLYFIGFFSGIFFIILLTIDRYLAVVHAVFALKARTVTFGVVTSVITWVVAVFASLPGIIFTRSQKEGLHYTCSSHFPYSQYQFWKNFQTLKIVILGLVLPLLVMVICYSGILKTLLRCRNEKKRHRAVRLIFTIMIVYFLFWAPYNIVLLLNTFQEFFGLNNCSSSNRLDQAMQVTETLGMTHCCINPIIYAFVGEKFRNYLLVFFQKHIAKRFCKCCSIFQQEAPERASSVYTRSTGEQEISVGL
Assay: Human CCR5 receptor-ligand binding assay
Details: CHO-Gα16-hCCR5 cells, 125I RANTES radioligand
Excerpt: Human CCR5 receptor (Genebank ID: 29169292) was cloned into mammalian expression vector, pTarget (Promega). The construct was transfected into CHO-Gα16 cells by using Fugene Reagent (Roche). Clones were selected under antibiotic pressure (G418 and Hygromycin) and sorted 4 times with a fluorescence activates cell sorter and a monoclonal antibody specific for CCR5 receptor (BD Biosciences Pharmigen, Mab 2D7, Cat. No. 555993). The clone with highest expression (100,000 copies per cell) was chosen for the binding assays.
Adherent cells in […] tissue culture flask (˜90% confluent) were harvested using 1 mM EDTA in PBS (phosphate-buffered saline) without Ca^2+ and Mg^2+. Cells were washed twice with PBS containing no Ca^2+ and Mg^2+. CHO-Gα16-hCCR5 cells were then resuspended (1×10^6/mL) in ice cold binding buffer (50 mM HEPES, 1 mM CaCl2, 5 mM MgCl2, 0.5% BSA, 0.05% NaN3, pH 7.24), pH 7.4), supplemented with freshly made 0.5% BSA and 0.05% NaN3.
Eighty μl CHO-Gα16-hCCR5 (1×10^6/mL) cells were added to 96 well plates. All dilutions were made in binding buffer (50 mM HEPES, 1 mM CaCl2, 5 mM MgCl2, 0.5% BSA, 0.05% NaN3, pH 7.24).
The plates were incubated on a cell shaker at RT for 2 h with a final concentration of 0.1 nM ^125I RANTES or ^125I MIP-1α or ^125I MIP-1β. The compound dilutions were made in PBS, 1% BSA. Total reaction volume was 100 μl per well. The test compounds were added to the cells prior to the addition of radioligand.
After incubation, the cells were harvested onto GF/C filter plates using Packard cell harvester. Filters were pretreated with 0.3% PEI/0.2% BSA for 30 min. The filter plate was washed rapidly 5 times with 25 mM HEPES, 500 mM NaCl, 1 mM CaCl2 and 5 mM MgCl2 adjusted to pH 7.1. Plates were dried in oven (70° C.) for 20 min, added with 40 μl scintillation fluid and sealed with Packard TopSeal-A. Packard Top Count was used to measure of the radioactivity for 1 min per well.
Total binding was determined with control wells added with radioisotope and buffer and the non-specific binding was determined using an excess cold RANTES to some of the control wells. Specific binding was determined by subtracting the non-specific form total binding. Results are expressed as the percentage of specific ^125I RANTES binding. IC50 values were determined using varying concentrations of the test ligand in triplicates and the data was analyzed using GraphPad Prism (GraphPad, San Diego, Calif.). c, […]

Compound | pIC50
Cc1cc(C#N)nc(C)c1C(=O)N1CCC(C)(N2CCC(N3C(=O)N(CC4CCN(S(C)(=O)=O)CC4)C[C@H]3c3ccccc3)CC2)CC1 [I-18, 5-{4-[(R)-3-(1-Methanesulfonyl-piperidin4-ylmethyl)-2-oxo-5-phenyl-imidazolidin-1-yl]-4′-methyl-[1,4′]bipiperidinyl-1′-carbonyl}-4,6-dimethyl-pyridine-2-carbonitrile] | 7.44
CCCCC1CN(C2CCOCC2)C(=O)N1C1CCN(C2(C)CCN(C(=O)c3c(C)ncnc3C)CC2)CC1 (stereo not shown) [I-2] | 6.01
CCCCC1CN(CC2CCOCC2)C(=O)N1C1CCN(C2(C)CCN(C(=O)c3c(C)ncnc3C)CC2)CC1 (stereo not shown) [I-3, 4-Butyl-3-[1′-(4,6-dimethyl-pyriridine-5-carbonyl)-4′-methyl-[1,4′]bipiperidinyl-4-yl]-1-(tetrahydro-pyran-4-ylmethyl)-imidazolidin-2-one] | 6.96
Cc1cc(C#N)nc(C)c1C(=O)N1CCC(C)(N2CCC(N3C(=O)N(CC4CCN(C(N)=O)CC4)C[C@H]3c3ccccc3)CC2)CC1 [I-21, 4-{(R)-3-[1′-(6-Cyano-2,4-dimethyl-pyridine-3-carbonyl)-4′-methyl-[1,4′]bipiperidinyl-4-yl]-2-oxo-4-phenyl-imidazolidin-1-ylmethyl}-piperidine-1-carboxylic acid amide] | 7.36
Cc1cc(C#N)nc(C)c1C(=O)N1CCC(C)(N2CCC(N3C(=O)N(CC4CCOCC4)C[C@H]3c3ccccc3)CC2)CC1 [I-7] | 7.95
CC(=O)N1CCC(CN2C[C@@H](c3ccccc3)N(C3CCN(C4(C)CCN(C(=O)c5c(C)cc(C#N)nc5C)CC4)CC3)C2=O)CC1 [I-20, 5-{4-[(R)-3-(1-Acetyl-piperidin-4-ylmethyl)-2-oxo-5-phenyl-imidazolidin-1-yl]-4′-methyl-[1,4′]bipiperidinyl-1′-carbonyl}-4,6-dimethyl-pyridine-2-carbonitrile] | 7.37
Cc1noc(C(F)(F)F)c1C(=O)N1CCC(C)(N2CCC(N3C(=O)N(CC4CCOCC4)C[C@H]3c3ccccc3)CC2)CC1 [I-8] | 8.29
Cc1cc(C#N)nc(C)c1C(=O)N1CCC(C)(N2CCC(N3C(=O)N(CC4CCOC4)CC3c3ccccc3)CC2)CC1 (stereo not shown) [I-25] | 7.26
CCO[C@H]1CC[C@H](CN2C[C@@H](c3ccccc3)N(C3CCN(C4(C)CCN(C(=O)c5c(C)ncnc5C)CC4)CC3)C2=O)CC1 [I-9] | 7.90
Cc1ncnc(C)c1C(=O)N1CCC(C)(N2CCC(N3C(=O)N(C4CCOCC4)C[C@H]3c3ccccc3)CC2)CC1 [I-13] | 7.05
CCCCC1CN(C2CCOCC2)C(=O)N1C1CCN(C2(C)CCN(C(=O)c3c(C)cc(C#N)nc3C)CC2)CC1 (stereo not shown) [I-1, 5-{4-[5-Butyl-2-oxo-3-(tetrahydro-pyran-4-yl)-imidazolidin-1-yl]-4′-methyl-[1,4′]bipiperidinyl-1′-carbonyl}-4,6-dimethyl-pyridine-2-carbonitrile] | 8.07
Cc1ncnc(C)c1C(=O)N1CCC(C)(N2CCC(N3C(=O)N(CC4CCOCC4)CC3c3cccc(F)c3)CC2)CC1 (stereo not shown) [I-27] | 7.05
CCO[C@H]1CC[C@H](CN2C[C@@H](c3ccccn3)N(C3CCN(C4(C)CCN(C(=O)c5c(C)cc(C#N)nc5C)CC4)CC3)C2=O)CC1 [I-26, 5-{4-[(S)-3-(4-Ethoxy-cyclohexylmethyl)-2-oxo-5-pyridin-2-yl-imidazolidin-1-yl]-4′-methyl-[1,4′]bipiperidinyl-1′-carbonyl}-4,6-dimethyl-pyridine-2-carbonitrile] | 7.61
CCO[C@H]1CC[C@H](CN2C[C@@H](c3ccccc3)N(C3CCN(C4(C)CCN(C(=O)c5c(C)noc5C(F)(F)F)CC4)CC3)C2=O)CC1 [I-11] | 8.17
Cc1ncnc(C)c1C(=O)N1CCC(C)(N2CCC(N3C(=O)N(CC4CCOCC4)CC3c3ccccc3)CC2)CC1 (stereo not shown) [I-6, 3-[1′-(4,6-Dimethyl-pyrimidine-5-carbonyl)-4′-methyl-[1,4′]bipiperidinyl-4-yl]-4-phenyl-1-(tetrahydro-pyran4-ylmethyl)-imidazolidin-2-one] | 7.56
CCO[C@H]1CC[C@H](CN2C[C@@H](c3ccccc3)N(C3CCN(C4(C)CCN(C(=O)c5c(C)cc(C#N)nc5C)CC4)CC3)C2=O)CC1 [I-10] | 7.97
COC(=O)N1CCC(CN2C[C@@H](c3ccccc3)N(C3CCN(C4(C)CCN(C(=O)c5c(C)cc(C#N)nc5C)CC4)CC3)C2=O)CC1 [I-17] | 7.45
Cc1noc(C(F)(F)F)c1C(=O)N1CCC(C)(N2CCC(N3C(=O)N(C[C@H]4CC[C@H](O)CC4)C[C@H]3c3ccccc3)CC2)CC1 [I-24, (R)-1-(4-Hydroxy-cyclohexylmethyl)-3-[4′-methyl-1′-(3-methyl-5-trifluoromethyl-isoxazole-4-carbonyl)-[1,4′]bipiperidinyl-4-yl]-4-phenyl-imidazolidin-2-one] | 8.15
COC(=O)N1CCC(CN2C[C@@H](c3ccccc3)N(C3CCN(C4(C)CCN(C(=O)c5c(C)ncnc5C)CC4)CC3)C2=O)CC1 [I-16, 4-{(R)-3-[1′-(4,6-Dimethyl-pyrimidine-5-carbonyl)-4′-methyl-[1,4′]bipiperidinyl-4-yl]-2-oxo-4-phenyl-imidazolidin-1-ylmethyl}-piperidine-1-carboxylic acid methyl ester] | 7.59
Cc1cc(C#N)nc(C)c1C(=O)N1CCC(C)(N2CCC(N3C(=O)N(C4CCC(O)CC4)C[C@H]3c3ccccc3)CC2)CC1 (stereo partly drawn) [I-23, 5-{4-[(R)-3-(4-Hydroxy-cyclohexyl)-2-oxo-5-phenyl-imidazolidin-1-yl]-4′-methyl-[1,4′]bipiperidinyl-1′-carbonyl}-4,6-dimethyl-pyridine-2-carbonitrile] | 7.69
Cc1cc(C#N)nc(C)c1C(=O)N1CCC(C)(N2CCC(N3C(=O)N(C4CCOCC4)C[C@H]3c3ccccc3)CC2)CC1 [I-12] | 7.05
Cc1ncnc(C)c1C(=O)N1CCC(C)(N2CCC(N3C(=O)N(CC4CCN(S(C)(=O)=O)CC4)C[C@H]3c3ccccc3)CC2)CC1 [I-19] | 6.93
CCCCC1CN(CC2CCOCC2)C(=O)N1C1CCN(C2(C)CCN(C(=O)c3c(C)cc(C#N)nc3C)CC2)CC1 (stereo not shown) [I-4] | 8.36
Cc1ncnc(C)c1C(=O)N1CCC(C)(N2CCC(N3C(=O)N(CC4CCOCC4)C[C@H]3c3ccccc3)CC2)CC1 [I-5, (R)-3-[1′-(4,6-Dimethyl-pyrimidine-5-carbonyl)-4′-methyl-[1 ,4′]bipiperidinyl-4-yl]-4-phenyl-1-(tetrahydro-pyran-4-ylmethyl)-imidazolidin-2-one] | 7.63
Cc1cc(C#N)nc(C)c1C(=O)N1CCC(C)(N2CCC(N3C(=O)N(CC4CCN(CC(F)F)CC4)C[C@H]3c3ccccc3)CC2)CC1 [I-15] | 7.74
Cc1ncnc(C)c1C(=O)N1CCC(C)(N2CCC(N3C(=O)N(CC4CCN(CC(F)F)CC4)C[C@H]3c3ccccc3)CC2)CC1 [I-14, (R)-1-[1-(2,2-Difluoro-ethyl)-piperidin-4-ylmethyl]-3-[1′-(4,6-dimethyl-pyrimidine-5-carbonyl)-4′-methyl-[1,4′]bipiperidinyl-4-yl]-4-phenyl-imidazolidin-2-one] | 7.58
